Patent publication US9598407B2, “Antibacterial piperidinyl substituted 3,4-dihydro-1H-[1,8]naphthyridinones” (JANSSEN SCIENCES IRELAND UC, priority 2011, dated 2017)
Values after ≈ are worked out from the molar mass of the structure shown.

What was measured:
[1] = target: S. aureus ATCC 29213 FabI (Staphylococcus aureus (strain MRSA252), UniProt Q6GI75); experiment: Staphylococcus aureus FabI enzyme inhibition assay; type: biochemical; conditions: 30 minutes at room temperature, pH 6.5
Method: D.1 FabI Enzyme Inhibition: Staphylococcus aureus FabI Enzyme Inhibition Assay
FabI enzyme inhibition assays were carried out in half-area, 384-well microtitre plates. Compounds were evaluated in 40-μl assay mixtures containing 100 mM NaADA, pH 6.5 (ADA=N-[2-acetamido]-2iminodiacetic acid), 250 μM crotonoyl-CoA, 625 μM NADH and 50 μg/ml S. aureus ATCC 29213 FabI Inhibitors were typically varied over the range of 50 to 0.39 μM. The reaction mixtures were incubated for 30 minutes at room temperature and the reaction was stopped by adding 200 mM Tris buffer (pH 9.0) to create a pH-shift. The consumption of NADH was monitored by measuring the change in absorbance at […]. By comparing sample readings to those of negative (absence of compound) and positive (absence of enzyme) controls, the percent inhibition of enzymatic activity of the compounds was determined A best-fit curve is fitted by a minimum of squares method. From this an IC50-value (expressed in μg/ml), resulting in 50% inhibition of enzymatic activity, was obtained.

[2] = system: Staphylococcus aureus ATCC 29213; experiment: Antibacterial susceptibility testing, IC90 determination (STA 361.159); type: cell-based; conditions: STA ATCC 29213; 90% inhibitory concentration for bacterial growth
Method: D.2 In Vitro Method for Testing Compounds for Antibacterial Activity Against Various Bacterial Strains Preparation of Bacterial Suspensions for Susceptibility Testing
(§1) The following bacteria were used: Staphylococcus aureus ATCC 29213, methicillin-resistant Staphylococcus aureus (MRSA) ATCC 700788 and Escherichia coli ATCC 35218. The bacteria used in this study were grown overnight in flasks containing 100 ml Mueller-Hinton broth (Difco cat. nr. 0757-17) in sterile de-ionized water, with shaking, at 37° C. Stocks were store at −70° C. until use.
(§2) Bacteria were incubated on a tryptic soy agar plate containing 5% sheep blood (Becton Dickinson cat. nr. 254053) for 18-24 hours at 35° C. in aerobic conditions (first passage). For the second passage, fresh Mueller-Hinton broth is inoculated with 5-10 colonies and grown overnight at 35° C. until turbidity (reaching log-phase) in aerobic conditions is reached. The bacterial suspension is then adjusted to 0.5 McFarland density and further diluted 1:100 in Mueller Hinton broth medium. This is used as inoculum.
Antibacterial Susceptibility Testing: IC90 Determination
(§3) MIC assays were performed by the broth microdilution method in a 96-well format (flat-bottom microtitre plates) with a final volume of 0.1 ml Mueller Hinton broth containing two-fold serial dilutions of compounds and inoculated with 5×10^5 CFU/ml of bacteria (standard inoculum size according to CLSI guidelines). Inhibitors are typically varied over the range of 63 to 0.49 μM. The final DMSO concentration in the assay was 1.25% (maximum tolerable DMSO concentration=6%). In the assays where the effect of human serum on the activity of the compounds against S. aureus was tested, human serum was added at a final concentration of 10%. The plates were incubated at 35° C. for 16-20 hours. At the end of incubation the bacterial growth was quantified fluorometrically. For this, resazurin was added to all wells and the plates were re-incubated. The incubation time is dependent on the type of bacteria. A change in color from blue to pink indicated the growth of bacteria. The fluorescence was read in computer-controlled fluorometer (Fluoroskan Ascent FL, Labsystems) at an excitation wavelength 540 nm and an emission wavelength of 590 nm. The % growth inhibition achieved by the compounds was calculated according to standard methods. The IC90 (expressed in μg/ml) was defined as the 90% inhibitory concentration for bacterial growth. A panel of reference compounds were simultaneously tested for QC approval.

S. aureus = experiment: Antibacterial susceptibility testing, IC90 with 10% human serum (STA + 10% HS 361.169); type: cell-based, Staphylococcus aureus; conditions: S. aureus with 10% human serum
Method: as §1, §2, §3
The results are depicted in the table D2 below (STA+10% HS).

Human HelaM cells = experiment: Cytotoxicity MTT assay (TOX HELAM 222.125); type: cell-based; conditions: 72 hours
Method: Cytotoxicity of the compounds was evaluated using the MTT assay. Human HelaM cells grown in 96-well plates were exposed to serial dilutions of the tested compounds (final volume of 0.2 ml) and incubated for 72 hours at 37° C. and 5% CO2 Inhibitors are typically varied over the range of 25 to 0.8 μM. The final DMSO concentration in the assay is 0.5%. MTT (3-(4,5-Dimethylthiazol-2-yl)-2,5-diphenyltetrazolium bromide, a tetrazole) was added and reduced to purple formazan only in living cells. Solubilization of the formazan crystals was achieved by adding 100 μl 2-propanol. Cell viability was determined by measuring the absorbance of the reduced formazan, giving a purple color, at 540 nm and 690 nm. The absorbance measured at 690 nm was automatically subtracted from the absorbance at 540 nm, to eliminate the effects of non-specific absorption. The percent cytotoxicity achieved by the compounds was calculated according to standard methods. Cytotoxicity is reported as CC50, the concentration that causes a 50% reduction in cell viability.
The results are depicted in the table D2 below (TOX HELAM).

S. aureus ATCC 29213 = experiment: Antimicrobial spectrum, CLSI broth microdilution MIC; type: cell-based, Staphylococcus aureus; conditions: reference strain MSSA, MHB
Method: (§4) Minimum Inhibitory Concentrations (MICs) were determined in accordance with the Clinical and Laboratory Standards Institute (CLSI) methodology against aerobic bacteria (CLSI M07-A8) (see Clinical and Laboratory Standards Institute. 2009. Methods for dilution antimicrobial susceptibility tests for bacteria that grow aerobically. CLSI document M07-A8, Vol. 29, No. 2.) by the broth microdilution method with cation-adjusted Mueller-Hinton broth (CA-MHB) medium for the majority of organisms, except for Haemophilus influenza, where Haemophilis test medium (HTM) broth was used. Descriptions of the individual organisms can be found in the table. Where possible, ATCC standard strains were tested.
(§5) The inoculum density for the susceptibility testing was standardized to give a final inoculum of approximately 5×10^5 CFU/mL.
(§6) Stock solutions of the compounds were prepared in DMSO at concentrations of 1 mg/mL. Linezolid was prepared in DMSO at a concentration of 2 mg/mL. Stock solutions of all compounds were diluted into CA-MHB to give a range of two-fold dilutions, depending upon the sensitivity of the organism being tested.

S. aureus ATCC 43300 = experiment: as above; type: cell-based, Staphylococcus aureus; conditions: reference strain MRSA, MHB
Method: as §4, §5, §6

S. aureus NRS119 = experiment: as above; type: cell-based, Staphylococcus aureus; conditions: LZD-R, MHB
Method: as §4, §5, §6

S. aureus NRS120 = experiment: as above; type: cell-based, Staphylococcus aureus; conditions: LZD-R, MHB
Method: as §4, §5, §6

S.aureus NRS121 = experiment: as above; type: cell-based, Staphylococcus aureus; conditions: LZD-R, MHB
Method: as §4, §5, §6

E. coli ATCC 25922 = experiment: as above; type: cell-based, Escherichia coli; conditions: reference strain, MHB
Method: as §4, §5, §6

E. coli tolC mutant = experiment: as above; type: cell-based, Escherichia coli; conditions: MHB
Method: as §4, §5, §6

H. influenza ATCC 49247 = experiment: as above; type: cell-based, Haemophilus influenzae; conditions: HTM broth
Method: as §4, §5, §6

M. catarrhalis ATCC 8176 = experiment: as above; type: cell-based, Moraxella catarrhalis; conditions: b-lactamase negative, MHB
Method: as §4, §5, §6

[3] = In vivo pharmacokinetic and oral bioavailability; conditions: male Swiss mice
Method: The in vivo pharmacokinetics and oral bioavailability of the compound of the examples was/is investigated in male Swiss mice (fed) following single intravenous (i.v.) bolus and oral (p.o.) administration. For the i.v. and p.o. solution formulations, the compound was/is dissolved in a 20% HP-β-CD solution. The pH of the formulations was/is around pH 4. All i.v. formulations were isotonic.

| SMILES | FabI IC50 [1] [µg/mL] | STA (361.159) IC90 [2] [µg/mL] | STA + 10% HS (361.169) IC90 (S. aureus) [µg/mL] | TOX HELAM (222.125) CC50 (Human HelaM cells) [µg/mL] | also measured |
| --- | --- | --- | --- | --- | --- |
| COc1cccc(C2=CCN(C(=O)/C=C/c3cnc4c(c3)CCC(=O)N4)CC2)c1 [compound 22] | 0.93 | 21.16 | >24.5733 | >9.783 | – |
| CC1CN(C(=O)/C=C/c2cnc3c(c2)CCC(=O)N3)CC=C1c1ccccc1 (stereo not shown) [compound 27] | 0.57 | 6.13 | 21.99 | >9.381 | – |
| O=C1CCc2cc(/C=C/C(=O)N3CCC(COc4ccc(F)cc4)CC3)cnc2N1 [compound 34] | 0.47 | 9.94 | 12.51 | >10.2852 | – |
| O=C1CCc2cc(/C=C/C(=O)N3CCC(Cc4ccccn4)CC3)cnc2N1 [compound 35] | 0.48 | 5.14 | 3.94 | >9.456 | – |
| O=C1CCc2cc(/C=C/C(=O)N3CCC(CC4CCCS4)CC3)cnc2N1 (stereo not shown) [compound 36] | 0.61 | 8.43 | 11.38 | >9.684 | – |
| O=C1CCc2cc(/C=C/C(=O)N3CCC(Cc4cccs4)CC3)cnc2N1 [compound 37] | 0.50 | 0.30 | 0.36 | 19.12 | MIC90 (S. aureus ATCC 29213): 0.125 µg/mL (≈ 0.328 µM); MIC90 (S. aureus ATCC 43300): 0.125 µg/mL (≈ 0.328 µM); MIC90 (S. aureus NRS119): 0.125 µg/mL (≈ 0.328 µM); MIC90 (S. aureus NRS120): 0.125 µg/mL (≈ 0.328 µM); MIC90 (S.aureus NRS121): 0.125 µg/mL (≈ 0.328 µM); MIC90 (E. coli ATCC 25922): >8 µg/mL; MIC90 (E. coli tolC mutant): >8 µg/mL; MIC90 (H. influenza ATCC 49247): >8 µg/mL; MIC90 (M. catarrhalis ATCC 8176): 1 µg/mL (≈ 2.62 µM); AUC0-inf ([3]; i.v., 2.5 mg/kg): 7464 ng·h/mL; Half life (t1/2) ([3]; i.v., 2.5 mg/kg): 2.7 h; Plasma clearance Cl ([3]; i.v., 2.5 mg/kg): 5.5 mL/min/kg; Vdz ([3]; i.v., 2.5 mg/kg): 1.3 L/kg; C0 ([3]; i.v., 2.5 mg/kg, 20% HP-β-CD solution): 2929 ng/mL; Oral bioavailability ([3]; p.o. 10 mg/kg vs i.v. 2.5 mg/kg): 72%; AUC0-inf ([3]; p.o., 10 mg/kg): 21394 ng·h/mL; Half life (t1/2) ([3]; p.o., 10 mg/kg): 3.2 h; Tmax ([3]; p.o., 10 mg/kg): 2.0 h; Cmax ([3]; p.o., 10 mg/kg, 20% HP-β-CD solution): 2950 ng/mL |
